Results as given in patent US20100267561A1, “HERBICIDAL PYRIDAZINONE DERIVATIVES” (priority 2007, published 2010).
Read-outs that look alike come from different tables or passages of the source.

Key:
Assay type in all cases: in vivo
[1] = tested on: bermudagrass (Cynodon dactylon); assay: Test B pre-/postemergence plant response; conditions: for pest or weed control at 31 g/ha: 31 g ai/ha; for pest or weed control at 62 g/ha: 62 g ai/ha, 100 complete control
Outline: (§1)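 Preemergence and postemergence (plants 2-18 cm, 1- to 4-leaf stage) applications used test chemicals in a non-phytotoxic solvent with surfactant. Plants were held in a greenhouse 13 to 15 days, then rated visually against controls on a 0-100 scale (0 no effect, 100 complete control).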

[2] = tested on: blackgrass (Alopecurus myosuroides); assay: Test B pre-/postemergence plant response; conditions: for pest or weed control at 31 g/ha: 31 g ai/ha; for pest or weed control at 62 g/ha: 62 g ai/ha, 100 complete control
Outline: as §1

corn (Zea mays) = assay: Test B pre-/postemergence plant response; conditions: for Corn plant response rating (crop injury, 0 = no effect, 100 = complete kill) at 31 g/ha: 31 g ai/ha; for Corn plant response rating (crop injury, 0 = no effect, 100 = complete kill) at 62 g/ha: 62 g ai/ha, 100 complete control
Outline: as §1

[3] = tested on: eastern black (E.B.) nightshade (Solanum ptycanthum); assay: Test B pre-/postemergence plant response; conditions: Preemergence
Outline: as §1

[4] = tested on: giant foxtail (Setaria faberii); assay: Test B pre-/postemergence plant response; conditions: for pest or weed control at 31 g/ha: 31 g ai/ha; for pest or weed control at 62 g/ha: 62 g ai/ha, 100 complete control
Outline: as §1

[5] = tested on: lambsquarters (Chenopodium album); assay: Test B pre-/postemergence plant response; conditions: for pest or weed control at 31 g/ha / pest or weed control at 62 g/ha: Chenopodium album, read-out: Plant response rating, Lambsquarters; for pest or weed control at 31 g/ha: 31 g ai/ha; for pest or weed control at 62 g/ha: 62 g ai/ha, 100 complete control
Outline: as §1

[6] = tested on: morningglory (Ipomoea coccinea); assay: Test B pre-/postemergence plant response; conditions: for pest or weed control at 31 g/ha / pest or weed control at 62 g/ha: Ipomoea, read-out: Plant response rating, Morningglory; for pest or weed control at 31 g/ha: 31 g ai/ha; for pest or weed control at 62 g/ha: 62 g ai/ha, 100 complete control
Outline: as §1

[7] = tested on: velvetleaf (Abutilon theophrasti); assay: Test B pre-/postemergence plant response; conditions: for pest or weed control at 31 g/ha / pest or weed control at 62 g/ha: Abutilon theophrasti, read-out: Plant response rating, Velvetleaf; for pest or weed control at 31 g/ha: 31 g ai/ha; for pest or weed control at 62 g/ha: 62 g ai/ha, 100 complete control
Outline: as §1

wild oat (Avena fatua) = assay: Test B pre-/postemergence plant response; conditions: for pest or weed control at 31 g/ha / pest or weed control at 62 g/ha: Avena fatua, read-out: Plant response rating, Oat, Wild; for pest or weed control at 31 g/ha: 31 g ai/ha; for pest or weed control at 62 g/ha: 62 g ai/ha, 100 complete control
Outline: as §1

[8] = tested on: yellow nutsedge (Cyperus esculentus); assay: Test B pre-/postemergence plant response; conditions: for pest or weed control at 31 g/ha / pest or weed control at 62 g/ha: Cyperus, read-out: Plant response rating, Nutsedge, Yellow; for pest or weed control at 31 g/ha: 31 g ai/ha; for pest or weed control at 62 g/ha: 62 g ai/ha, 100 complete control
Outline: as §1

[9] = tested on: canarygrass (Phalaris minor); assay: Test B postemergence plant response; conditions: for Plant response rating, Canarygrass: Postemergence
Outline: (§2)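 Compounds applied after emergence to 2–18 cm plants; response read visually 13–15 days later on 0 (none) to 100 (complete control); a dash marks no result.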

[10] = tested on: chickweed (Stellaria media); assay: Test B postemergence plant response; conditions: for Plant response rating, Chickweed: Postemergence
Outline: as §2

[11] = tested on: windgrass (Apera spica-venti); assay: Test B postemergence plant response; conditions: for Windgrass plant response rating: postemergence, 0-100 scale; for Plant response rating, Windgrass: Postemergence
Outline: as §2

[12] = tested on: winter barley (Hordeum vulgare); assay: Test B postemergence plant response; conditions: for Plant response rating, Barley: Postemergence, scale 0 to 100, 0 no effect, 100 complete control
Outline: as §2

[13] = tested on: barnyardgrass (Echinochloa crus-galli); assay: Test B flooded paddy test plant response; conditions: Echinochloa crus-galli, read-out: Plant response rating, Barnyardgrass
Outline: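 Paddy-water application to 2-leaf plants in pots held under 3 cm of flooding; response is a 0–100 visual control rating against controls after 13 to 15 days, and a dash marks a missing result.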

[14] = 8 g ai/ha, postemergence, 0-100 scale
[15] = Preemergence, 8 g ai/ha, scale 0 to 100 (0 no effect, 100 complete control)
[16] = Preemergence, 16 g ai/ha, scale 0 to 100
[17] = 16 g ai/ha, postemergence, 0-100 scale
[18] = post-emergence, Postemergence, scale 0 to 100
[19] = post-emergence, Postemergence, scale 0 to 100, 0 no effect
[20] = pre-emergence, Preemergence, scale 0 to 100 (0 no effect, 100 complete control)
[21] = pre-emergence, Preemergence, 0 to 100 scale, 0 no effect
[22] = 62 g ai/ha, scale 0 to 100, 0 no effect, 100 complete control

Cc1cc(-c2ccc(Br)cc2)nn1-c1c(OC(=O)C2CC2)cnn(C(=O)C2CC2)c1=O [Compound 80, 5-[3-(4-bromophenyl)-5-methyl-1H-pyrazol-1-yl]-1-(cyclopropylcarbonyl)-1,6-dihydro-6-oxo-4-pyridazinyl cyclopropanecarboxylate]
Bermudagrass plant response rating [1, 14]: 85
pest or weed control at 16 g/ha ([1]; Cynodon dactylon, post-emergence, Postemergence, 16 g ai/ha, scale 0 to 100, read-out: Plant response rating, Bermudagrass): 95%
pest or weed control at 31 g/ha ([1]; Cynodon dactylon, post-emergence, Postemergence, scale 0 to 100, read-out: Plant response rating, Bermudagrass): 100%
pest or weed control at 62 g/ha ([1]; Cynodon dactylon, post-emergence, Postemergence, scale 0 to 100, 0 no effect, read-out: Plant response rating, Bermudagrass): 100%
pest or weed control at 31 g/ha ([1]; Cynodon dactylon, pre-emergence, Preemergence, scale 0 to 100 (0 no effect, 100 complete control), read-out: Plant response rating, Bermudagrass): 100%
pest or weed control at 62 g/ha ([1]; Cynodon dactylon, pre-emergence, Preemergence, 0 to 100 scale, 0 no effect, read-out: Plant response rating, Bermudagrass): 100%
Bermudagrass plant response rating [1, 15]: 50
Bermudagrass plant response rating ([1]; Preemergence, 16 g ai/ha, scale 0 to 100 (0 no effect, 100 complete control)): 100
Blackgrass plant response rating [2, 14]: 80
pest or weed control at 16 g/ha ([2]; Alopecurus myosuroides, post-emergence, Postemergence, 16 g ai/ha, scale 0 to 100, read-out: Plant response rating, Blackgrass): 85%
pest or weed control at 31 g/ha ([2]; Alopecurus myosuroides, post-emergence, Postemergence, scale 0 to 100, read-out: Plant response rating, Blackgrass): 95%
pest or weed control at 62 g/ha ([2]; Alopecurus myosuroides, post-emergence, Postemergence, scale 0 to 100, 0 no effect, read-out: Plant response rating, Blackgrass): 100%
pest or weed control at 31 g/ha ([2]; Alopecurus myosuroides, pre-emergence, Preemergence, scale 0 to 100 (0 no effect, 100 complete control), read-out: Plant response rating, Blackgrass): 100%
pest or weed control at 62 g/ha ([2]; Alopecurus myosuroides, pre-emergence, Preemergence, 0 to 100 scale, 0 no effect, read-out: Plant response rating, Blackgrass): 100%
Blackgrass plant response rating [2, 15]: 70
Blackgrass plant response rating [2, 16]: 70
Corn plant response rating (corn (Zea mays); [14]): 100
Corn plant response rating (corn (Zea mays); [15]): 20
Corn plant response rating (corn (Zea mays); [16]): 85
Corn plant response rating (crop injury, 0 = no effect, 100 = complete kill) at 16 g/ha (corn (Zea mays); Zea mays, post-emergence, Postemergence, 16 g ai/ha, scale 0 to 100): 100%
Corn plant response rating (crop injury, 0 = no effect, 100 = complete kill) at 31 g/ha (corn (Zea mays); Zea mays, post-emergence, Postemergence, scale 0 to 100): 100%
Corn plant response rating (crop injury, 0 = no effect, 100 = complete kill) at 62 g/ha (corn (Zea mays); Zea mays, post-emergence, Postemergence, scale 0 to 100, 0 no effect): 100%
Corn plant response rating (crop injury, 0 = no effect, 100 = complete kill) at 31 g/ha (corn (Zea mays); Zea mays, pre-emergence, Preemergence, scale 0 to 100 (0 no effect, 100 complete control)): 98%
Corn plant response rating (crop injury, 0 = no effect, 100 = complete kill) at 62 g/ha (corn (Zea mays); Zea mays, pre-emergence, Preemergence, 0 to 100 scale, 0 no effect): 100%
Nightshade, E. B. plant response rating ([3]; 8 g ai/ha, scale 0 to 100 (0 no effect, 100 complete control)): 0
pest or weed control at 31 g/ha ([3]; Solanum, pre-emergence, 31 g ai/ha, scale 0 to 100 (0 no effect, 100 complete control), read-out: Plant response rating, Nightshade, E. B.): 0%
pest or weed control at 62 g/ha ([3]; Solanum, pre-emergence, 62 g ai/ha, 0 to 100 scale, 0 no effect, 100 complete control, read-out: Plant response rating, Nightshade, E. B.): 0%
Foxtail, Giant plant response rating [4, 14]: 95
Foxtail, Giant plant response rating [4, 15]: 0
Foxtail, Giant plant response rating [4, 16]: 100
pest or weed control at 16 g/ha ([4]; Setaria faberi, post-emergence, Postemergence, 16 g ai/ha, scale 0 to 100, read-out: Plant response rating, Foxtail, Giant): 100%
pest or weed control at 31 g/ha ([4]; Setaria faberi, post-emergence, Postemergence, scale 0 to 100, read-out: Plant response rating, Foxtail, Giant): 100%
pest or weed control at 62 g/ha ([4]; Setaria faberi, post-emergence, Postemergence, scale 0 to 100, 0 no effect, read-out: Plant response rating, Foxtail, Giant): 100%
pest or weed control at 31 g/ha ([4]; Setaria faberi, pre-emergence, Preemergence, scale 0 to 100 (0 no effect, 100 complete control), read-out: Plant response rating, Foxtail, Giant): 100%
pest or weed control at 62 g/ha ([4]; Setaria faberi, pre-emergence, Preemergence, 0 to 100 scale, 0 no effect, read-out: Plant response rating, Foxtail, Giant): 100%
Lambsquarters plant response rating [5, 14]: 0
Lambsquarters plant response rating [5, 17]: 0
pest or weed control at 31 g/ha [5, 18]: 0%
pest or weed control at 62 g/ha [5, 19]: 0%
pest or weed control at 31 g/ha [5, 20]: 0%
pest or weed control at 62 g/ha [5, 21]: 0%
Lambsquarters plant response rating [5, 15]: 0
Lambsquarters plant response rating [5, 16]: 0
Morningglory plant response rating [6, 14]: 0
Morningglory plant response rating [6, 17]: 0
pest or weed control at 31 g/ha [6, 18]: 0%
pest or weed control at 62 g/ha [6, 19]: 0%
pest or weed control at 31 g/ha [6, 20]: 0%
pest or weed control at 62 g/ha [6, 21]: 0%
Morningglory plant response rating [6, 15]: 0
Morningglory plant response rating [6, 16]: 0
Velvetleaf plant response rating [7, 14]: 0
Velvetleaf plant response rating [7, 17]: 0
pest or weed control at 31 g/ha [7, 18]: 0%
pest or weed control at 62 g/ha [7, 19]: 0%
pest or weed control at 31 g/ha [7, 20]: 0%
pest or weed control at 62 g/ha [7, 21]: 0%
Velvetleaf plant response rating [7, 15]: 0
Velvetleaf plant response rating [7, 16]: 0
Oat, Wild plant response rating (wild oat (Avena fatua); [14]): 85
Oat, Wild plant response rating (wild oat (Avena fatua); [17]): 100
pest or weed control at 31 g/ha (wild oat (Avena fatua); [18]): 100%
pest or weed control at 62 g/ha (wild oat (Avena fatua); [19]): 100%
pest or weed control at 31 g/ha (wild oat (Avena fatua); [20]): 60%
pest or weed control at 62 g/ha (wild oat (Avena fatua); [21]): 70%
Oat, Wild plant response rating (wild oat (Avena fatua); [15]): 30
Oat, Wild plant response rating (wild oat (Avena fatua); [16]): 40
Nutsedge, Yellow plant response rating [8, 14]: 0
Nutsedge, Yellow plant response rating [8, 17]: 0
pest or weed control at 31 g/ha [8, 18]: 0%
pest or weed control at 62 g/ha [8, 19]: 0%
pest or weed control at 31 g/ha [8, 20]: 0%
pest or weed control at 62 g/ha [8, 21]: 100%
Nutsedge, Yellow plant response rating [8, 15]: 0
Nutsedge, Yellow plant response rating [8, 16]: 0
Canarygrass plant response rating [9, 14]: 90
Plant response rating, Canarygrass ([9]; 16 g ai/ha, scale 0 to 100): 98
Plant response rating, Canarygrass ([9]; 31 g ai/ha, scale 0 to 100): 100
Plant response rating, Canarygrass [9, 22]: 100
Chickweed plant response rating [10, 14]: 0
Plant response rating, Chickweed ([10]; 16 g ai/ha, scale 0 to 100): 0
Plant response rating, Chickweed ([10]; 31 g ai/ha, scale 0 to 100): 0
Plant response rating, Chickweed [10, 22]: 0
Windgrass plant response rating ([11]; 8 g ai/ha): 30
Windgrass plant response rating ([11]; 16 g ai/ha): 40
Plant response rating, Windgrass ([11]; 31 g ai/ha, scale 0 to 100): 60
Plant response rating, Windgrass [11, 22]: 70
Barley plant response rating [12, 14]: 30
Plant response rating, Barley ([12]; 16 g ai/ha): 60
Plant response rating, Barley ([12]; 31 g ai/ha): 95
Plant response rating, Barley ([12]; 62 g ai/ha): 98
pest or weed control at 62 g/ha ([13]; Flood (flooded paddy test), 62 g ai/ha, scale 0 to 100, 0 no effect, 100 complete control): 0%
pest or weed control at 125 g/ha ([13]; Flood (flooded paddy test), 125 g ai/ha, scale 0 to 100, 0 no effect, 100 complete control): 0%
pest or weed control at 250 g/ha ([13]; Flood (flooded paddy test), 250 g ai/ha, scale 0 to 100, 0 no effect, 100 complete control): 0%
pest or weed control at 31 g/ha ([13]; Flood, 31 g ai/ha, scale 0 to 100): 0%
